# Results: patent US20050065187A1, “Novel antimicrobial aryloxazolidinone compounds” (priority 2003, published 2005)
# Read-outs that look alike come from different tables or passages of the source.
# Legend:
# Assay in all cases: Antibacterial assay (Test A), microtitration MIC
# MC 30603 = type: cell-based, M. catarrhalis; conditions: Moraxella catarrhalis, read-out: MC 30603 MIC
# Method: (§1) Test A—Antibacterial Assays
# (§2) The compounds of the present invention were tested against an assortment of Gram-negative and Gram-positive organisms using standard microtitration techniques (Cohen et. al., Antimicrob., 1985;28:766; Heifetz, et. al., Antimicrob., 1974;6:124).
# HINF 30063 = type: cell-based, H. influenza; conditions: Minimum Inhibitory Concentration, strain HINF 30063
# Method: as §1, §2
# SAUR 9213 = type: cell-based, S. aureus; conditions: Staphylococcus aureus, read-out: SAUR 9213 MIC
# Method: as §1, §2
# SPNE 9912 = type: cell-based, S. pneumoniae; conditions: Streptococcus pneumoniae, read-out: SPNE 9912 MIC
# Method: as §1, §2
# [1] = Minimum Inhibitory Concentration, strain MC 30603
# [2] = Minimum Inhibitory Concentration, strain SAUR 9213
# [3] = Minimum Inhibitory Concentration, strain SPNE 9912
Structure (SMILES),MIC (MC 30603; [1]) [µg/mL],MIC (HINF 30063) [µg/mL],MIC (SAUR 9213; [2]) [µg/mL],MIC (SPNE 9912; [3]) [µg/mL],MIC (MC 30603) [µg/mL],MIC (SAUR 9213) [µg/mL],MIC (SPNE 9912) [µg/mL]
"CC(=O)NC[C@H]1CN(c2ccc(C3CCC(O)CC3)c(F)c2)C(=O)O1 (stereo in doubt) [Example 16, N-{3-[3-Fluoro-4-(4-hydroxy-cyclohexyl)-phenyl]-2-oxo-oxazolidin-5-ylmethyl}-acetamide]",4,8,2,1,–,–,–
"NC(=O)[C@H]1CN(c2ccc(C3CCC(O)CC3)c(F)c2)C(=O)O1 (stereo in doubt) [Example 23, 3-[3-Fluoro-4-(4-hydroxy-cyclohexyl)-phenyl]-2-oxo-oxazolidine-5-carboxylic acid amide]",16,64,2,1,–,–,–
"CC(=O)NC[C@H]1CN(c2ccc(N3CC/C(=N/O)[C@@H](O)C3)c(F)c2)C(=O)O1 (stereo in doubt) [Example 3, N-{3-[3-Fluoro-4-(3-hydroxy-4-hydroxyimino-piperidin-1-yl)-phenyl]-2-oxo-oxazolidin-5-ylmethyl}-acetamide]",16,16,8,2,–,–,–
"O=C(NC[C@H]1CN(c2ccc(C3CCC(O)[C@@H](O)C3)c(F)c2)C(=O)O1)C(Cl)Cl (stereo in doubt) [Example 9, 2,2-Dichloro-N-{3-[4-(3,4-dihydroxy-cyclohexyl)-3-fluoro-phenyl]-2-oxo-oxazolidin-5-ylmethyl}-acetamide]",4,4,4,1,–,–,–
"O=C1O[C@@H](CNC(=S)C(F)F)CN1c1ccc(C2CCC(O)CC2)c(F)c1 (stereo partly shown) [Example 19, 2,2-Difluoro-N-{3-[3-fluoro-4-(4-hydroxy-cyclohexyl)-phenyl]-2-oxo-oxazolidin-5-ylmethyl}-thioacetamide]",2,8,2,0.5,–,–,–
"O=C(NC[C@H]1CN(c2ccc(C3CCC(O)[C@@H](O)C3)c(F)c2)C(=O)O1)C(F)F (stereo in doubt) [Example 10, N-{3-[4-(3,4-Dihydroxy-cyclohexyl)-3-fluoro-phenyl]-2-oxo-oxazolidin-5-ylmethyl}-2,2-difluoro-acetamide]",4,8,4,1,–,–,–
"CCC(=O)NC[C@H]1CN(c2ccc(C3CCC(O)[C@@H](O)C3)c(F)c2)C(=O)O1 (stereo in doubt) [Example 8, N-{3-[4-(3,4-Dihydroxy-cyclohexyl)-3-fluoro-phenyl]-2-oxo-oxazolidin-5-ylmethyl}-propionamide]",8,8,8,2,–,–,–
"O=C1O[C@@H](CNC(=S)C(F)F)CN1c1ccc(C2CCC(O)[C@@H](O)C2)c(F)c1 (stereo in doubt) [Example 11, N-{3-[4-(3,4-Dihydroxy-cyclohexyl)-3-fluoro-phenyl]-2-oxo-oxazolidin-5-ylmethyl}-2,2-difluoro-thioacetamide]",4,8,1,0.5,–,–,–
"CCC(=O)NC[C@H]1CN(c2ccc(C3CCC(O)CC3)c(F)c2)C(=O)O1 (stereo in doubt) [Example 17, N-{3-[3-Fluoro-4-(4-hydroxy-cyclohexyl)-phenyl]-2-oxo-oxazolidin-5-ylmethyl}-propionamide]",4,4,2,1,–,–,–
"O=C1CCN(c2ccc(N3C[C@H](Cn4ccnn4)OC3=O)cc2F)C[C@@H]1O [Example 6, 1-[2-Fluoro-4-(2-oxo-5-[1,2,3]triazol-1-ylmethyl-oxazolidin-3-yl)-phenyl]-3-hydroxy-piperidin-4-one]",8,64,4,1,–,–,–
"CCC(=O)NC[C@H]1CN(c2ccc(C3CCC(O)C(F)C3)c(F)c2)C(=O)O1 (single isomer, unassigned) [Example 27, N-{3-[3-Fluoro-4-(3-fluoro-4-hydroxy-cyclohexyl)-phenyl]-2-oxo-oxazolidin-5-ylmethyl}-propionamide]",2,8,2,0.25,–,–,–
"O=C1O[C@@H](CNC(=S)C(F)F)CN1c1ccc(C2CCC(O)[C@@H](O)C2)cc1 (stereo in doubt) [Example 15, N-{3-[4-(3,4-Dihydroxy-cyclohexyl)-phenyl]-2-oxo-oxazolidin-5-ylmethyl}-2,2-difluoro-thioacetamide]",8,16,4,1,–,–,–
"CON=C1CCC(c2ccc(N3C[C@H](CNC(C)=O)OC3=O)cc2F)CC1 (stereo partly shown) [Example 22, N-{3-[3-Fluoro-4-(4-methoxyimino-cyclohexyl)-phenyl]-2-oxo-oxazolidin-5-ylmethyl}-acetamide]",1,32,2,1,–,–,–
"O=C(NC[C@H]1CN(c2ccc(C3CCC(O)[C@@H](O)C3)cc2)C(=O)O1)C(Cl)Cl (stereo in doubt) [Example 13, 2,2-Dichloro-N-{3-[4-(3,4-dihydroxy-cyclohexyl)-phenyl]-2-oxo-oxazolidin-5-ylmethyl}-acetamide]",8,8,8,1,–,–,–
"O=C(NC[C@H]1CN(c2ccc(C3CCC(O)CC3)c(F)c2)C(=O)O1)C(F)F (stereo in doubt) [Example 18, 2,2-Difluoro-N-{3-[3-fluoro-4-(4-hydroxy-cyclohexyl)-phenyl]-2-oxo-oxazolidin-5-ylmethyl}-acetamide]",4,8,2,0.5,–,–,–
"O=C1O[C@@H](Cn2ccnn2)CN1c1ccc(N2CC[C@@H](O)[C@@H](O)C2)c(F)c1 (stereo in doubt) [Example 5, 3-[4-(3,4-Dihydroxy-piperidin-1-yl)-3-fluoro-phenyl]-5-[1,2,3]triazol-1-ylmethyl-oxazolidin-2-one]",16,32,4,1,–,–,–
"CC(=O)NC[C@H]1CN(c2ccc([C@@H]3CCC(=O)[C@@H](O)C3)c(F)c2)C(=O)O1 (stereo in doubt) [Example 25, N-{3-[3-Fluoro-4-(3-hydroxy-4-oxo-cyclohexyl)-phenyl]-2-oxo-oxazolidin-5-ylmethyl}-acetamide]",–,16,–,–,8,2,2
"O=C(NC[C@H]1CN(c2ccc(C3CCC(O)[C@@H](O)C3)cc2)C(=O)O1)C(F)F (stereo in doubt) [Example 14, N-{3-[4-(3,4-Dihydroxy-cyclohexyl)-phenyl]-2-oxo-oxazolidin-5-ylmethyl}-2,2-difluoro-acetamide]",16,16,8,2,–,–,–
"CON=C1CCN(c2ccc(N3CC(CNC(C)=O)OC3=O)cc2F)CC1O (stereo not shown) [Example 4, N-{3-[3-Fluoro-4-(3-hydroxy-4-methoxyimino-piperidin-1-yl)-phenyl]-2-oxo-oxazolidin-5-ylmethyl}-acetamide]",32,64,8,2,–,–,–
"CC(=O)NC[C@H]1CN(c2ccc(C3CCC(O)C(F)C3)c(F)c2)C(=O)O1 (single isomer, unassigned) [Example 26, N-{3-[3-Fluoro-4-(3-fluoro-4-hydroxy-cyclohexyl)-phenyl]-2-oxo-oxazolidin-5-ylmethyl}-acetamide]",8,16,2,0.5,–,–,–
"CC(=O)NC[C@H]1CN(c2ccc(C3CCC(=O)CC3)c(F)c2)C(=O)O1 [Example 20, N-{3-[3-Fluoro-4-(4-oxo-cyclohexyl)-phenyl]-2-oxo-oxazolidin-5-ylmethyl}-acetamide]",8,16,2,0.5,–,–,–
"CC(=O)NC[C@H]1CN(c2ccc(N3CC[C@@H](O)[C@@H](O)C3)c(F)c2)C(=O)O1 (stereo in doubt) [Example 1, N-{3-[4-(3,4-Dihydroxy-piperidin-1-yl)-3-fluoro-phenyl]-2-oxo-oxazolidin-5-ylmethyl}-acetamide]",–,32,–,–,8,8,2
"CC(=O)NC[C@H]1CN(c2ccc(C3CC[C@@H](O)[C@@H](O)C3)cc2)C(=O)O1 (single isomer, unassigned) [Example 12, N-{3-[4-(3,4-Dihydroxy-cyclohexyl)-phenyl]-2-oxo-oxazolidin-5-ylmethyl}-acetamide]",16,16,16,4,–,–,–
"CC(=O)NC[C@H]1CN(c2ccc(N3CCC(=O)[C@@H](O)C3)c(F)c2)C(=O)O1 [Example 2, N-{3-[3-Fluoro-4-(3-hydroxy-4-oxo-piperidin-1-yl)-phenyl]-2-oxo-oxazolidin-5-ylmethyl}-acetamide]",8,16,4,1,–,–,–
"O=C1O[C@@H](CNC(=S)C(F)F)CN1c1ccc(C2CCC(O)C(F)C2)c(F)c1 (single isomer, unassigned) [Example 28, 2,2-Difluoro-N-{3-[3-fluoro-4-(3-fluoro-4-hydroxy-cyclohexyl)-phenyl]-2-oxo-oxazolidin-5-ylmethyl}-thioacetamide]",2,32,1,0.5,–,–,–
